Results taken from US10322177B2, “Activation of immune-related signaling pathways in cells via optofection” (Nant Holdings IP, LLC, priority 2015, dated 2019).

Experiments:
Assay type in all cases: cell-based, murine
RAW-Lucia ISG cells = experiment: RAW-Lucia ISG luciferase reporter, gold nanoparticle optofection of cGAMP (photomicrographs, FIGS. 2A-2C)
Excerpt: FIGS. 2A-2C illustrate experimental evidence indicating the validity of the disclosed techniques though the use of RAW-Lucia® ISG cells that express luciferase when a Type I IFN response pathway is activated (see FIG. 3) by a CDN.
FIG. 2A represents an experiment where gold nanoparticles lacking target cell ligands (here ligand for […]) and cGAMP cargo material are introduced to the cell population. No electro-magnetic stimulation is applied.
FIG. 2B represents an experiment where gold nanoparticles lacking target cell ligands (ligand for CD14) and cGAMP cargo material are introduced to the cell population. In this experiment, the nanoparticles were exposed to 3 mJ pulsed laser. […] The luciferase expression in FIG. 2B is considered to be present in response to random proximity of the gold nanoparticles to cells when the gold nanoparticles are excited by the laser.
FIG. 2C represents an experiment where gold nanoparticles having a CD14 ligand and cGAMP cargo material are both introduced to the cell population. In this case, the nanoparticles attach to the target cells.
The immune response induced in the experiments shown in FIGS. 2A-2C is evidenced by production of luciferase in specifically targeted cells. A mentioned previously, the specifically target cells selected for the experiments were RAW-Lucia™ ISG cells commercially available from InvivoGen® (see URL www.invivogen.com/raw-lucia-isg). The RAW-Lucia cells express luciferase gene (Lucia) through various IFN-stimulated response elements (ISRE) as indicated in FIG. 3. Thus, when an IFN response is stimulated, the cells express the luciferase gene. Of specific note, when CDNs are introduced to the RAW-Lucia cells, the IFN response is activated causing expression of the luciferase gene. Therefore, FIG. 2C clearly provides evidence via substantial luciferase expression that the disclosed technique of causing a cell to uptake CDNs (e.g., cGAMP, etc.) via externally generated poration is capable of inducing an immune response. Such result is not necessarily predictable as laser excitation and concomitant cavitation events may damage or interfere with signal transduction events.

RAW-Lucia target cells [1] = experiment: Relative luciferase activity of RAW-Lucia cells under treatment configurations (FIG. 4)
Experimental: (§1) FIG. 4 provides further experimental evidence with respect to the efficiency of cargo delivery to the specific target cells. The two charts show the relative luciferase activity of RAW-Lucia target cells four hours after treatment and 24 hours after treatment under different treatment configurations.
Treatment configuration 1 represents a cell population having no treatment where no nanoparticles and no laser are introduced to the RAW-Lucia cell population.
Treatment configuration 2 represents a cell population treated with CD14 ligand coated gold nanoparticles and a 10 uM cGAMP solution.
Treatment configuration 3 is similar to treatment configuration 2 with the exception that a 1 uM cGAMP solution was introduced to the cell population rather than a 10 uM cGAMP solution.
Treatment configuration 4 includes treating the target cells with just nanoparticles coated with CD14 ligand followed by application of laser stimulation.
Treatment configuration 5 is similar to Treatment 4, although lacking laser stimulation.
Treatment configuration 6 includes treating the cell population with just a 10 uM cGAMP solution without nanoparticles or application of laser stimulation.

RAW-Lucia target cells [2] = experiment: Relative luciferase activity of RAW-Lucia cells after BLAST delivery (FIG. 5); settings: Treatment 2: BLAST, 2.5 uM cGAMP solution; 4 hour and 24 hour
Experimental: as §1, with “FIG. 5” for “FIG. 4”, “target cells with respect to using a biophotonic laser-assisted surgery tool (BLAST, as described in Nature Methods 12, 439-444 (2015)).” for “target cells.”, “charts of FIG. 5” for “charts”, “under three” for “under”
Treatment configuration 1 represents a control group where the cell population is not treated in order to provide a base line result.
Treatment configuration 2 leverages BLAST where the cell population is bathed in a 2.5 uM cGAMP solution.
Treatment configuration 3 includes co-incubation of the cell populations with a 2.5 uM cGAMP solution. However, the cell population is not exposed to laser stimulation via BLAST.
It should be appreciated that FIG. 5 illustrates the efficacy of a method of inducing an interferon response in specific target cells, including target cells within a heterogeneous cell population. Free cyclic di-nucleotide cargo (i.e., cGAMP in the scenario of FIG. 5) was introduced to the cell population such that the cGAMP remained external to the target cells in a 2.5 uM solution. […]

[3] = gold nanoparticles having a CD14 ligand plus cGAMP, 2 mJ pulsed laser (FIG. 2C)

In the case of `Nc1nc2c(ncn2[C@@H]2O[C@@H]3COP(=O)(O)O[C@H]4[C@@H](O)[C@H](n5cnc6c(N)ncnc65)O[C@@H]4COP(=O)(O)O[C@@H]2[C@@H]3O)c(=O)[nH]1` [cGAMP], the cell viability (RAW-Lucia ISG cells; [3]) is reported as “substantially all cells retained viability”, the luciferase expression (RAW-Lucia ISG cells; [3]) is reported as “nearly all cells express luciferase” and the luciferase expression (RAW-Lucia ISG cells; gold nanoparticles lacking target cell ligands plus cGAMP, 3 mJ pulsed laser (FIG. 2B)) is reported as “some cells express luciferase”. The luciferase expression (RAW-Lucia ISG cells; gold nanoparticles lacking target cell ligands plus cGAMP, no electro-magnetic stimulation (FIG. 2A)) was “very little or negligible luciferase expression”, the relative luciferase activity (RAW-Lucia target cells [1]; Treatment 2: CD14 ligand coated gold nanoparticles, 10 uM cGAMP solution, laser, 4 h and 24 h after treatment) was “significant luciferase activity” and the relative luciferase activity (RAW-Lucia target cells [1]; Treatment 3: CD14 ligand coated gold nanoparticles, 1 uM cGAMP solution, laser, 4 h and 24 h after treatment) was “fairly similar to Treatment 2”. The relative luciferase activity (RAW-Lucia target cells [1]; Treatment 6: 10 uM cGAMP solution only, no nanoparticles, no laser) was “reduced level of luciferase activity” and the relative luciferase activity (RAW-Lucia target cells [2]) was “significant luciferase activity”.
